Experimental data reported in patent US20020147353A1, “Novel flavonoids” (Vereniging christelijk wetenschappelijk anderwijs, priority 1999, published 2002).

Experiments:
[1] = test system: iron/ascorbate induced lipid peroxidation; assay: Lipid peroxidation (LPO) model, heat-treated hepatic microsomes, TBA reactive substances; assay type: biochemical; conditions: rat hepatic microsomes, reaction started with 10 uM FeSO4; mean ± s.e.m., n = 3-5
Procedure: Experiment 1: Lipid Peroxidation Model
Preparation of hepatic microsomes.
Male Wistar rats (200-220 g) obtained from Harlan Nederland B.V. (Horst, The Netherlands) were sacrificed by decapitation. Livers were removed and homogenized in ice-cold phosphate buffer (50 mM+0.1 mM EDTA, pH=7.4, 1:2 w/v). The homogenate was centrifuged at 10 000× g (20 min at 4° C.). Subsequently, the supernatant was centrifuged at 100 000× g for 60 min (4° C.). The pellet was resuspended in phosphate buffer and centrifuged again at 100 000× g (60 min, 4° C.). Finally the microsomal pellet was resuspended in phosphate buffer (2 g liver/ml) and 1 mL aliquots were stored at −80° C.
Microsomes were thawed and resuspended in ice-cold Tris-HCl buffer (50 mM, pH=7.4 at 37° C.) and washed by centrifugation. The pellet was resuspended in 2 mL 50 mM Tris-HCl buffer and heated to 100° C. for at least 2 min to remove all enzymatic factors just before resuspending and diluting it in ice-cold Tris buffer to 1.5 mg/mL.
Stock solutions of the flavonoids were freshly prepared in nitrogen-purged DMSO and nanopure water (1:1) just before use. The reaction was started by adding 10 uM freshly prepared FeSO4 in nitrogen-purged nanopure water. LPO was assayed by measuring thiobarbituric acid (TBA) reactive substances. At t=0, 5, 10, 15, 30, 45 and 60 min an 0.3 mL aliquot of the incubation was mixed with 2 mL of an ice-cold TBA-trichloroacetic acid-HCl-butylhydroxytoluene (BHT) solution to stop the reaction. After heating and centrifugation the absorbance at 535 vs 600 nm was determined. The TBA-trichloroacetic acid-HCl-butylhydroxytoluene solution was prepared by dissolving 41.6 mg TBA/10 ml trichloroacetic acid (16.8% w/v in 0.125 N HCl). To 10 ml TBA-trichloroacetic acid-HCl 1 ml BHT (1.5 mg/ml ethanol) was added.
The IC50 was determined by measuring the % LPO inhibition at several concentrations and interpolating the 50% inhibition point.

[2] = TEAC model (Trolox equivalent antioxidant capacity); conditions: concentration of Trolox equivalent to 1 mM test compound; mean ± S.D., n = 3-5
Procedure: A solution of 2,2′-azino-bis(3-ethylbenzthiazoline-6-sulfonic acid) (1.23 mg/mL) and azobisamidinepropane (3.96 mg/mL) in 50 mM phosphate buffer (pH=7.4) was heated at 70° C. for 20 min. The amount of ABTS radicals was measured by determination of the absorbance at 734 nm.
Stock solutions of the flavonoids were freshly prepared in nitrogen-purged DMSO and nanopure water (1:1) just before use. A calibration curve of Trolox ((+/−)-6-hydroxy-2,5,7,8-tetramethyl-chroman-2-carboxylic acid) was made in a concentration range from 0 to 20 μM. A mixture of 50 μL test compound and 950 μL ABTS^−+ solution was incubated at 37° C. for 5 min. Subsequently the absorbance at 734 nm was determined on a UV/VIS Spectrophotometer.
The antioxidant-induced decrease in absorbance is directly related to the antioxidant capacity of the compound (solution) being tested.
The Trolox equivalent antioxidant capacity (TEAC) is defined as the concentration (mM) of Trolox having an antioxidant capacity equivalent to 1 mM of the test compound.

[3] = test system: isolated mouse left atrium; assay: Isolated mouse left atrium model: protection against doxorubicin-induced negative inotropy; design: key: NP: No protection; conditions: 250 μM flavonoid with 35 μM doxorubicin, electrically paced mouse left atrium
Procedure: Experiment 3: Isolated Mouse Left Atrium Model
In order to determine the cardioprotective properties of the compounds in vitro, the protection against doxorubicin-induced negative inotropy was studied, using the isolated mouse left atrium model.
The example compounds were tested for their protective effect on the negative inotropic action of doxorubicin on the isolated mouse left atrium. The testing model has been described earlier (de Jong et al.Ress Comm Chem Pathol Pharmacol 68, 275-289 (1990). In short, left atria were isolated from male Balb/c mice (18-22 g) and stimulated with square wave pulses of 3 ms duration at a frequency of 4 Hz. Incubation with […] doxorubicin causes a decrease in inotropy of 50% (after 1 h). Atria were incubated with 35 μM doxorubicin and 250 μM flavonoid. Inotropy was measured and expressed as % basal contractile force relative to t=0.

Row | IC50 [1] [µM] | Molecule | TEAC [2] [mM] | Atrium protection (250 μM) [3]
1 | 11 ± 1.3 | O=c1cc(-c2ccc(O)c(O)c2)oc2cc(O)ccc12 [Compound 8a, 3′,4′,7-trihydroxyflavone] | 4.3 ± 0.2 | –
2 | 37.3 ± 2.4 | C[N+](C)(C)CCCOc1ccc2c(=O)cc(-c3ccc(O)c(O)c3)oc2c1 [Compound 8d, 3′4′-dihydroxy-7-(3-trimethylaminopropoxy)flavone] | 1.9 ± 0.3 | –
3 | 6.5 ± 1 | O=C(O)COc1c(-c2ccc(O)c(O)c2)oc2ccccc2c1=O [Compound 9d, 3′4′-dihydroxy-3-(2-ethoxycarboxylic acid)flavone] | 7.6 ± 0.6 | NP
4 | 1.2 ± 0.3 | C[N+](C)(C)CCCOc1c(-c2ccc(O)c(O)c2)oc2ccccc2c1=O [Compound 9f, 3′4′-dihydroxy-3-(3-trimethylaminopropoxy)flavone] | 4.2 ± 0.2 | NP
5 | 1.4 ± 0.3 | C[N+](C)(C)CCCCCCOc1c(-c2ccc(O)c(O)c2)oc2ccccc2c1=O [Compound 9g, 3′4′-dihydroxy-3-(6-trimethylaminohexyloxy)flavone] | 4.3 ± 0.6 | NP
6 | 1 ± 0.3 | C[N+](C)(C)CCCCCCCCOc1c(-c2ccc(O)c(O)c2)oc2ccccc2c1=O [Compound 9h, 3′4′-dihydroxy-3-(8-trimethylaminooctyloxy)flavone] | 3.3 ± 0.6 | NP
7 | 15.7 ± 4.8 | C[C@@H]1O[C@@H](OC[C@H]2O[C@@H](Oc3c(-c4ccc(O)c(O)c4)oc4ccccc4c3=O)[C@H](O)[C@@H](O)[C@@H]2O)[C@H](O)[C@H](O)[C@H]1O [Compound 9j, 3′,4′-dihydroxy-3-rutinoseflavone] | 4.3 ± 0.3 | NP
8 | 3.8 ± 0.1 | C[N+](C)(C)CCCc1c(-c2ccc(O)c(O)c2)oc2cc(O)ccc2c1=O.[Cl-] [Compound 10d, 3-(7,3′,4′-trihydroxyflavon-3-yl)-propyltrimethylammoniumchloride] | 5.1 ± 0.3 | 33%
9 | 6 | O=c1c(O)c(-c2ccccc2)oc2cc(O)cc(O)c12 [Galangin, reference compound] | – | –
10 | 6 | O=c1c(O)c(-c2ccc(O)cc2)oc2cc(O)cc(O)c12 [Kaempferol, reference compound] | – | –
11 | 17 | O=c1cc(-c2ccc(O)c(O)c2)oc2cc(O)cc(O)c12 [Lutcolin, reference compound] | – | –
12 | 10 | O=c1c(O)c(-c2cc(O)c(O)c(O)c2)oc2cc(O)cc(O)c12 [Myricetin, reference compound] | – | –
13 | 10 | C[C@@H]1O[C@@H](OC[C@H]2O[C@@H](Oc3c(-c4ccc(O)c(O)c4)oc4cc(O)cc(O)c4c3=O)[C@H](O)[C@@H](O)[C@@H]2O)[C@H](O)[C@H](O)[C@H]1O [Rutin, reference compound] | – | –
14 | 16 | Fisetin [reference compound] | – | –

Row | Molecule | IC50 [1] [µM] | TEAC [2] [mM] | Atrium protection (250 μM) [3]
15 | O=c1cc(-c2ccc(O)c(O)c2)oc2cc(OCCO)ccc12 [Compound 8c, 3′,4′-dihydroxy-7-hydroxyethoxyflavone] | 16.4 ± 1.7 | 4.3 ± 0.7 | –
16 | CN(C)CCCOc1ccc2c(=O)cc(-c3ccc(O)c(O)c3)oc2c1 [Compound 8e, 3′,4′-dihydroxy-7-(3-dimethylaminopropoxy)flavone] | 8.1 ± 1.1 | 2.9 ± 0.4 | –
17 | CN(C)CCCOc1c(-c2ccc(O)c(O)c2)oc2ccccc2c1=O [Compound 9e, 3′,4′-dihydroxy-3-(3-dimethylaminopropoxy)flavone] | 1 ± 0.1 | 3.4 ± 0.4 | NP
18 | O=c1c(OCCO)c(-c2ccc(O)c(O)c2)oc2cc(O)ccc12 [Compound 10c, 3-hydroxyethoxy-7,3′,4′-trihydroxyflavone] | 21.7 ± 6.1 | 3.4 ± 0.2 | 13%
